What all share (test): Post-emergence efficacy, glasshouse spray test
Type in all cases: in vivo

The subject of test [1] is Amaranthus palmeri (AMAPA). The following applies: Application Rate 500 g/Ha, evaluated after 13 days; for pest or weed control at 500 g/ha: Amaranthus palmeri, post-emergence, 312 h, read-out: Control of weed species after post-emergence application, AMAPA (100=total damage to plant; 0=no damage to plant). The method in brief: (§1)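 Sow in standard soil; grow 14 d at 24/16° C, 14 h light, 65% humidity; spray aqueous dilution of IF50 formulation; return to glasshouse, water twice daily; score injury 0–100 at day 13.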

The subject of test [2] is Chenopodium album (CHEAL). The following applies: Application Rate 500 g/Ha, evaluated after 13 days; for pest or weed control at 500 g/ha: Chenopodium album, post-emergence, 312 h, read-out: Control of weed species after post-emergence application, CHEAL (100=total damage to plant; 0=no damage to plant). The method in brief:
as §1

For test [3], the system named is Digitaria sanguinalis (DIGSA). As to conditions: Application Rate 500 g/Ha, evaluated after 13 days; for pest or weed control at 500 g/ha: Digitaria sanguinalis, post-emergence, 312 h, read-out: Control of weed species after post-emergence application, DIGSA (100=total damage to plant; 0=no damage to plant). The method in brief: as §1
Test [4] deals with Echinochloa crus-galli (ECHCG). The following applies: Application Rate 500 g/Ha, evaluated after 13 days; for pest or weed control at 500 g/ha: Echinochloa crus-galli, post-emergence, 312 h, read-out: Control of weed species after post-emergence application, ECHCG (100=total damage to plant; 0=no damage to plant). The method in brief: as §1
A further test deals with Eleusine indica (ELEIN). The following applies: Application Rate 500 g/Ha, evaluated after 13 days; for pest or weed control at 500 g/ha: Eleusine indica, post-emergence, 312 h, read-out: Control of weed species after post-emergence application, ELEIN (100=total damage to plant; 0=no damage to plant). The procedure, abridged: as §1
Test [5] concerns Euphorbia heterophylla (EPHHL). The following applies: Application Rate 500 g/Ha, evaluated after 13 days; for pest or weed control at 500 g/ha: Euphorbia heterophylla, post-emergence, 312 h, read-out: Control of weed species after post-emergence application, EPHHL (100=total damage to plant; 0=no damage to plant). The procedure, abridged: as §1
The subject of test [6] is Ipomoea hederacea (IPOHE). As to conditions: Application Rate 500 g/Ha, evaluated after 13 days; for pest or weed control at 500 g/ha: Ipomoea hederacea, post-emergence, 312 h, read-out: Control of weed species after post-emergence application, IPOHE (100=total damage to plant; 0=no damage to plant). The procedure, abridged: as §1
The test system of another test is Lolium perenne (LOLPE). As to conditions: Application Rate 500 g/Ha, evaluated after 13 days; for pest or weed control at 500 g/ha: Lolium perenne, post-emergence, 312 h, read-out: Control of weed species after post-emergence application, LOLPE (100=total damage to plant; 0=no damage to plant). The method in brief:
as §1

In a further test the test system is Setaia fabei (SETFA). As to conditions: Application Rate 500 g/Ha, evaluated after 13 days; for pest or weed control at 500 g/ha: Setaria faberi, post-emergence, 312 h, read-out: Control of weed species after post-emergence application, SETFA (100=total damage to plant; 0=no damage to plant). The method in brief: as §1

With `O=C(O)CC[n+]1ccc(-c2nnc[nH]2)cn1` [Compound A37], the pest or weed control at 500 g/ha in test [1] is 30%; in test [2], 50%; in test [3], 10%; in test [4], 10%; with Eleusine indica (ELEIN), 10%; in test [5] it was 30%. The pest or weed control at 500 g/ha in test [6] was 20%; in the test with Lolium perenne (LOLPE) it was 0%; in the test on Setaia fabei (SETFA), 10%.
`O=S(=O)([O-])CC[n+]1ccc(-c2ccns2)cn1` [Compound A5]: the pest or weed control at 500 g/ha in test [1] came to 100%; in [2] it was 100%; in [3], 60%; in test [4], 70%; with Eleusine indica (ELEIN), 80%; in [5], 100%. In addition, the pest or weed control at 500 g/ha worked out at 70% in [6], 100% in the test with Lolium perenne (LOLPE) and 60% in the test on Setaia fabei (SETFA).
`COP(=O)(CCC[n+]1ccc(-c2ncco2)cn1)OC.[Br-]` [Compound A76]: in test [1], the “Control of weed species after post-emergence application, AMAPA (100=total damage to plant; 0=no damage to plant)” value is listed as 30. For the same compound, in [2], the “Control of weed species after post-emergence application, CHEAL (100=total damage to plant; 0=no damage to plant)” value is given as 20. Further, in test [3], the “Control of weed species after post-emergence application, DIGSA (100=total damage to plant; 0=no damage to plant)” value is 60. Moreover, the “Control of weed species after post-emergence application, ECHCG (100=total damage to plant; 0=no damage to plant)” value in [4] is listed as 30. The “Control of weed species after post-emergence application, ELEIN (100=total damage to plant; 0=no damage to plant)” value in the test with Eleusine indica (ELEIN) is reported as 70. Moreover, in [5], the “Control of weed species after post-emergence application, EPHHL (100=total damage to plant; 0=no damage to plant)” value was 40. Further, the “Control of weed species after post-emergence application, IPOHE (100=total damage to plant; 0=no damage to plant)” value in [6] is listed as 30. In addition, the “Control of weed species after post-emergence application, LOLPE (100=total damage to plant; 0=no damage to plant)” value with Lolium perenne (LOLPE) is 30. Further, the “Control of weed species after post-emergence application, SETFA (100=total damage to plant; 0=no damage to plant)” value with Setaia fabei (SETFA) is 40.
In the case of `Cc1nsc(-c2cc[n+](CCS(=O)(=O)[O-])nc2)n1` [Compound A10], the pest or weed control at 500 g/ha in test [1] was found to be 60%; in test [2], 80%; in test [3] it was 50%; in test [4] it was 30%; in the test on Eleusine indica (ELEIN), 60%; in test [5], 60%. Further, the pest or weed control at 500 g/ha in test [6] turned out to be 50%; in the test on Lolium perenne (LOLPE), 60%; with Setaia fabei (SETFA) it was 60%.
For the compound `Cn1nc(-c2cc[n+](CCS(=O)(=O)[O-])nc2)cc1C(F)(F)F` [Compound A29], the pest or weed control at 500 g/ha came to 20% in test [1]; 50% in test [2]; 30% in test [3]; 20% in test [4]; 30% in the test on Eleusine indica (ELEIN); 20% in [5]. Also, the pest or weed control at 500 g/ha (in [6]; in the test with Lolium perenne (LOLPE); in the test with Setaia fabei (SETFA)) was 20% throughout.
With `O=S(=O)([O-])CC[n+]1ccc(-c2ccoc2)cn1` [Compound A42], the pest or weed control at 500 g/ha in test [1] worked out at 20%; in test [2], 40%; in test [3], 20%; in test [4], 10%; in the test with Eleusine indica (ELEIN), 20%; in test [5] it was 30%. Also, the pest or weed control at 500 g/ha in test [6] was 20%; in the test on Lolium perenne (LOLPE) it was 0%; with Setaia fabei (SETFA), 10%.
On to `O=S(=O)([O-])NCC[n+]1ccc(-c2ncco2)cn1` [Compound A73], for which the pest or weed control at 500 g/ha in test [1] is 80%; in test [2], 70%; in [3], 70%; in test [4], 50%; in the test on Eleusine indica (ELEIN), 70%; in test [5], 50%. The pest or weed control at 500 g/ha in test [6] is 30%; with Lolium perenne (LOLPE), 10%; in the test on Setaia fabei (SETFA) it was 60%.

The values above are taken from patent publication US20210053957A1, “HERBICIDAL COMPOUNDS” (SYNGENTA PARTICIPATIONS AG, priority 2018, published 2021).
